Structures can show the parent of a compound that is named as a salt. Values belong to the compound of their own block, whether it stands above or below them.
Key:
[1] = Water uptake by thermogravimetry after exposure to relative humidity; type: physicochemical; conditions: 80% rh during 24 hours
Description: Mesylate salt: 4-(2-(2-(benzo[b]thiophen-3-yl)-9-isopropyl-9H-purin-6-ylamino)ethyl)phenol free base (0.60 g; 1.40 mmoles) are dissolved in 12 ml acetone at 50° C. Methanesulfonic acid (0.137 g; 1.40 mmoles) is added drop wise. The crystallization takes place rapidly. The white suspension is allowed to cool over about 30 minutes with cooling to room temperature. The slurry is stirred for 18 hours at room temperature and filtered. The solid is washed with acetone (6 ml) in three portions and dried first for about 3 hours at 50° C./ca. 10 mbar and then for about 16 hours at 80° C./ca. 10 mbar. […] The water uptake was estimated by thermogravimetry after exposure to relative humidity (80% rh) during 24 hours. A water uptake of 0.4% was observed.

[2] = tested on: Primary adult CD34+ human hematopoietic stem cells (HSCs); experiment: % CD34+ assay: HSC expansion screen, dose response; type: cell-based; conditions: for EC50: Homo sapiens, Hematopoietic stem cell, dose response 1 nM to 10 μM, total number and/or percent of CD34+ cells
Description: Primary adult CD34^+ human hematopoietic stem cells (HSCs) are cultured and screened to identify compounds of the invention that facilitate HSC expansion. The cells are analyzed for the presence of the desired phenotype (CD34 expression). Compounds of the invention promote HSC expansion in a dose dependent manner.
Culture Medium: StemSpan SFEM medium is serum-free medium (StemCell Technologies, Vancouver, BC) supplemented with the following human recombinant cytokines: thrombopoietin, interleukin-6, Flt-3 ligand, and stem cell factor (all from R&D Systems, Minneapolis, Minn.), each at a final concentration of 50 ng/mL, with vehicle (DMSO) or a compound of the invention.
Human Cell Culture: Fresh human leukophoresed G-CSF mobilized peripheral blood from normal donors, CD34^+ cells from adult bone marrow and cryopreserved human cord blood CD34^+ cells are purchased from AllCells (Berkeley, Calif.). Human CD34^+ cells are enriched from leukophoresed G-CSF mobilized peripheral blood using magnetic cell sorting (MACS, Direct CD34 Progenitor Cell Isolation Kit, Miltenyi Biotec, Bergisch Gladbach, Germany) and cryopreserved. CD34^+ cell purity, checked by flow Cytometry, is higher than 90%. After thawing, the cell viability tested by trypan blue exclusion is higher than 70%. The thawed cells are centrifuged and resuspended with StemSpan medium before being aliquoted for immediate culture. Cells are plated at 10^4 cells/mL in a 384 well plate (Greiner Bio-One, Monroe, N.C.) with 50 μL of medium per well for 7 days. Every 7 days the cells are transferred to larger well plates and fresh medium is added to keep the cell density between 10^4 and 5×10^5 cells/mL. Cells were cultured at 37° C. in 5% CO2. For transplantation, cells were cultured in 75 cm^2 flasks before the cells were transplanted into mice. At a concentration of 1 micromolar, 4-(2-(2-(benzo[b]thiophen-3-yl)-9-isopropyl-9H-purin-6-ylamino)ethyl)phenol (compound 1, table 1; example 1), 4-(2-(2-(benzo[b]thiophen-3-yl)-9-sec-butyl-9H-purin-6-ylamino)ethyl)phenol (compound 2, table 1), and N-(2-(1H-indol-3-yl)ethyl)-2-(benzo[b]thiophen-3-yl)-9-isopropyl-9H-purin-6-amine (compound 9, table 1) each gives rise to a greater than 10-fold increase in the number of CD34^+ CD45RA^− cells derived from 1000 mPB CD34^+ HSCs after 21 days compared to vehicle. Compounds of the invention were assayed in a dose response format (1 nM to 10 μM) to determine the effective concentration that produced the desired effect in 50% of the cells (EC50).

mPB-derived CD34+ cells = experiment: Genome-wide transcriptional profiling; type: cell-based, human; conditions: 24 hours
From the text: The two genes that were the most highly repressed by treatment with Example 1 (cytochrome P450 1B1 [CYP1B1] and the aryl hydrocarbon receptor repressor [AHRR]) are transcriptionally regulated by the aryl hydrocarbon receptor (AHR). Therefore, compounds of the invention could be acting as an antagonist of AHR signaling.

[3] = tested on: CYP1B1 mRNA in mPB-derived CD34+ cells; experiment: TCDD-mediated CYP1B1 mRNA expression by qPCR; type: cell-based, human; conditions: 3 nM; vehicle 0.01% toluene
Description: Further, the ability of Example 1 to block 2,3,7,8-tetrachlorodibenzo-p-dioxin (TCDD, dioxin)-mediated CYP1B1 mRNA expression by qPCR in mPB-derived CD34^+ cells was determined. Treatment with TCDD (3 nM) caused a 4.5-fold increase in the level of CYP1B1 mRNA compared with the vehicle control (0.01% toluene). […] To determine the effects of Example 1 in AHR transcription the ability of Example 1 to inhibit a dioxin-induced AHR dependent luciferase reporter gene assay was tested.

mPB-derived CD34+ cell = experiment: 7 day culture with AHR antagonists, expansion of CD34+ cells; type: cell-based, human; conditions: 7 days
Description: To further explore the role of AHR signaling in HSCs two other AHR antagonists (alpha-naphthoflavone and CH-223191) were tested. Both compounds lead to dose dependent increases in the number of CD34^+ cells when cultured with mPB-derived CD34^+ cell for 7 days: inclusion of 1 μM CH223191 afforded a 2.2-fold expansion of CD34^+ cells; 0.75 μM α-naphthoflavone afforded a 1.9-fold expansion of CD34^+ cells while 0.75 μM Example 1 afforded a 3.4-fold expansion of total CD34^+ cells. […] Forty-eight hours following transduction, CD34+GFP^+ cells were purified by cell sorting and the levels of AHR were determined by qPCR. Both AHR targeting shRNAs led to decreases in AHR expression following transduction (81% with sh111 and 51% with sh242). These decreases were not seen in cells lacking GFP or in cells transduced with control virus.

SMILES: CC(C)n1cnc2c(NCCc3ccc(O)cc3)nc(-c3csc4ccccc34)nc21 [Esylate salt, 4-(2-(2-(benzo[b]thiophen-3-yl)-9-isopropyl-9H-purin-6-ylamino)ethyl)phenol]
water uptake [1]: 0.05%

SMILES: Cc1n[nH]c(C)c1CCCNc1nc(-c2csc3ccccc23)nc2c1ncn2C(C)C [2-(benzo[b]thiophen-3-yl)-N-(3-(3,5-dimethyl-1H-pyrazol-4-yl)propyl)-9-isopropyl-9H-purin-6-amine]
activity relative to example 1 (less active) [2]: ~20 fold
down-regulation of 5 genes (most repressed: CYP1B1, AHRR) (mPB-derived CD34+ cells; 1 μM): none were significantly affected
up-regulation of 5 genes of >50,000 probe sets (mPB-derived CD34+ cells): induced to some degree

SMILES: Clc1cc2c(cc1Cl)Oc1cc(Cl)c(Cl)cc1O2 [TCDD, 2,3,7,8-tetrachlorodibenzo-p-dioxin]
increase in the level of CYP1B1 mRNA compared with vehicle control [3]: 4.5 fold

SMILES: Cc1ccccc1N=Nc1ccc(NC(=O)c2ccnn2C)c(C)c1 [CH223191, 2-methyl-2H-pyrazole-3-carboxylic acid (2-methyl-4-o-tolylazophenyl)amide]
expansion of CD34+ cells (mPB-derived CD34+ cell; 1 μM): 2.2 fold

SMILES: O=c1cc(-c2ccccc2)oc2c1ccc1ccccc12 [α-naphthoflavone, alpha-naphthoflavone]
expansion of CD34+ cells (mPB-derived CD34+ cell; 0.75 μM): 1.9 fold

SMILES: CC(C)n1cnc2c(NCCc3ccc(O)cc3)nc(-c3cncc(F)c3)cc21 [Example 161, 4-(2-(6-(5-Fluoropyridin-3-yl)-1-isopropyl-1H-imidazo[4,5-c]pyridin-4-ylamino)ethyl)phenol]
EC50 [2]: 170 nM

SMILES: CC(C)n1cnc2c(NCCc3ccc(O)cc3)nc(-c3ccsc3)nc21 [Example 17]
EC50 [2]: 970 nM

SMILES: CCC(C)n1cnc2c(NCCc3c[nH]c4ccccc34)nc(-c3cncc(F)c3)nc21 (stereo not drawn) [Example 132]
EC50 [2]: 3 nM

SMILES: CC(C)n1cnc2c(NCCc3ccc(O)cc3)nc(-c3cccnc3C#N)nc21 [Example 143]
EC50 [2]: 4300 nM

SMILES: CC(C)n1cnc2c(NCCc3ccc(O)cc3)nc(-c3ccc(F)nc3)nc21 [Example 34]
EC50 [2]: 160 nM

The remaining lines, values ahead:

water uptake [1]: less than 0.05%
SMILES: CC(C)n1cnc2c(NCCc3ccc(O)cc3)nc(-c3csc4ccccc34)nc21 [Napadisylate salt, 4-(2-(2-(benzo[b]thiophen-3-yl)-9-isopropyl-9H-purin-6-ylamino)ethyl)phenol]

water uptake [1]: about 0.05%
SMILES: CC(C)n1cnc2c(NCCc3ccc(O)cc3)nc(-c3csc4ccccc34)nc21 [Besylate salt, 4-(2-(2-(benzo[b]thiophen-3-yl)-9-isopropyl-9H-purin-6-ylamino)ethyl)phenol]

water uptake [1]: No water uptake
SMILES: CC(C)n1cnc2c(NCCc3ccc(O)cc3)nc(-c3csc4ccccc34)nc21 [Hydrobromide salt, 4-(2-(2-(benzo[b]thiophen-3-yl)-9-isopropyl-9H-purin-6-ylamino)ethyl)phenol]

water uptake [1]: 0.4%
SMILES: CC(C)n1cnc2c(NCCc3ccc(O)cc3)nc(-c3csc4ccccc34)nc21 [Tosylate salt, 4-(2-(2-(benzo[b]thiophen-3-yl)-9-isopropyl-9H-purin-6-ylamino)ethyl)phenol]

water uptake [1]: 0.2%
SMILES: CC(C)n1cnc2c(NCCc3ccc(O)cc3)nc(-c3csc4ccccc34)nc21 [Sulfate salt, 4-(2-(2-(benzo[b]thiophen-3-yl)-9-isopropyl-9H-purin-6-ylamino)ethyl)phenol]

water uptake [1]: 0.4%
SMILES: CC(C)n1cnc2c(NCCc3ccc(O)cc3)nc(-c3csc4ccccc34)nc21 [Mesylate salt, 4-(2-(2-(benzo[b]thiophen-3-yl)-9-isopropyl-9H-purin-6-ylamino)ethyl)phenol]

water uptake [1]: 0.3%
SMILES: CC(C)n1cnc2c(NCCc3ccc(O)cc3)nc(-c3csc4ccccc34)nc21 [Hydrochloride salt, 4-(2-(2-(benzo[b]thiophen-3-yl)-9-isopropyl-9H-purin-6-ylamino)ethyl)phenol]

water uptake [1]: 0.3%
SMILES: CC(C)n1cnc2c(NCCc3ccc(O)cc3)nc(-c3csc4ccccc34)nc21 [Hemi-fumarate salt, 4-(2-(2-(benzo[b]thiophen-3-yl)-9-isopropyl-9H-purin-6-ylamino)ethyl)phenol]

water uptake [1]: 1.7%
SMILES: CC(C)n1cnc2c(NCCc3ccc(O)cc3)nc(-c3csc4ccccc34)nc21 [Orotate salt, 4-(2-(2-(benzo[b]thiophen-3-yl)-9-isopropyl-9H-purin-6-ylamino)ethyl)phenol]
